Reference: patent publication US6358700B2, “Method for detecting microorganisms by fluorescent staining using hydrostatic pressure” (Japan Marine Science and Technology Center, priority 1998, dated 2002)

What was measured:
IFO2347 strain [1] = assay: Dependency on glucose metabolism of pressure-induced CDCF accumulation; assay type: cell-based; settings: Saccharomyces cerevisiae, MBA buffer with 100 mM D-glucose, 10 μM CDCFDA, FIG. 4B, read-out: concentration at which half-maximal inhibition of pressure-induced CDCF accumulation occurred
Procedure: Cells originated fiom a log-phase culture (2×10^7 to 4×10^7 cells/ml) were incubated with 10 μM CFDA (Sigma, Cat. No. C-5041) in YPD containing 50 mM citric acid (pH 3.0), or 10 μM CDCFDA Molecular Probe, Cat. No. C-369) in YPD containing 50 mM citric acid (pH 5.0), respectively, under varying hydrostatic pressures ranging from ordinary pressure to 60 MPa. To analyze the dependence, on glucose, of pressure-induced dye-accumulation, vegetative cells were collected, washed twice in distilled water and starved for 30 min on ice. […]
To analyze the effect of 2-deoxyglucose, cells were incubated with CDCFDA in MBA buffer containing 100 mM D-glucose. […] Fluorescence of the labeled cells emitted at 535 nm with excitation at 485 nm was detected using CytoFluor 2350 Plate Reader (available from Mlipore), or an RF5300PC spectrofluorometer (available from Shimazu, Japan). Fluorescence intensity (a. u.; arbitrary units) was recorded as the fluorescence of labeled cells minus the fluorescence of non-labeled cells for 10^7 cells.
The cells of the strain were cultured at 24° C. for one hour in MBA buffer containing a desired amount of D-glucose at a predetermined hydrostatic pressure (0.1 MPa (◯), 30 MPa (●)) in the presence of 10 μM CDCFDA. The labeled cells were analyzed using CytoFluor 2350. […]

IFO10159 strain = assay: Accumulation of CF and CDCF under elevated hydrostatic pressure (CytoFluor 2350); assay type: cell-based, Saccharomyces cerevisiae; settings: ordinary pressure; for total fluorescence intensity of labeled cells: 10 μM dye, one hour
Procedure: (§1) Cells of Saccharomyces cerevisiae were grown in YPD (1% yeast extract, 2% bactopeptone, 2% D-glucose) broth at 24° C. Cells from a log-phase culture (2×10^7 to 4×10^7 cells/ml) were collected by centiifugation and re-suspended in fresh YPD containing 50 mM citric acid (pH 3.0 or pH 5.0), then placed in plastic tubes (Cryotubes, available from Nunc) at 2×10^7 to 3×10^7 cells/ml. After sealing with Parafilm, the tubes were put into titanium pressure vessels, followed by application of a desired hydrostatic pressure. The each required hydrostatic pressure was established within 2 min using a hand pump (available from Rigo-sha, Japan). To remove samples, the pressure was released in approximately 15 sec.
(§2) Cells originated fiom a log-phase culture (2×10^7 to 4×10^7 cells/ml) were incubated with 10 μM CFDA (Sigma, Cat. No. C-5041) in YPD containing 50 mM citric acid (pH 3.0), or 10 μM CDCFDA Molecular Probe, Cat. No. C-369) in YPD containing 50 mM citric acid (pH 5.0), respectively, under varying hydrostatic pressures ranging from ordinary pressure to 60 MPa. To analyze the dependence, on glucose, of pressure-induced dye-accumulation, vegetative cells were collected, washed twice in distilled water and starved for 30 min on ice. Then cells were suspended in MBA buffer (100 mM MES-Bis-Tris, 100 mM ammonium sulfate, pH 5.0), followed by addition of CDCFDA and application of a desired hydrostatic pressure of up to 6OMPa for one hour in the presence of D-glucose in various concentrations.
(§3) To analyze the effect of 2-deoxyglucose, cells were incubated with CDCFDA in MBA buffer containing 100 mM D-glucose. Unless otherwise specified, the final concentration of the fluorescent dye was 10 μM. After applying a desired hydrostatic pressure for one hour, the cells were washed twice with 10 mM MES-Bis-Tris (pH 5.0) and suspended in MB buffer. Fluorescence of the labeled cells emitted at 535 nm with excitation at 485 nm was detected using CytoFluor 2350 Plate Reader (available from Mlipore), or an RF5300PC spectrofluorometer (available from Shimazu, Japan). Fluorescence intensity (a. u.; arbitrary units) was recorded as the fluorescence of labeled cells minus the fluorescence of non-labeled cells for 10^7 cells.
(§4) Cells of the IFO2347 strain were incubated with 10 μM of CFDA or CDCFDA and cultured for one hour under each hydrostatic pressure condition. The stained cells were analyzed using Cytofluor 2350. The results thus obtained are plotted on FIG. 1A Similarly, cells of IFO10159 strain were inoculated with 10 μM of CFDA or CDCFDA and cultured for one hour under each hydrostatic pressure condition. The stained cells were analyzed using Cytofluor 2350. The results thus obtained are plotted on FIG. 1B. In FIGS. 1A and 1B, ◯ and ● represent cells stained with CF and those stained with CDCF, respectively.

IFO2347 strain [2] = assay: as above; assay type: cell-based, Saccharomyces cerevisiae; settings: 10 μM CFDA or CDCFDA, one hour, FIG. 1A
Procedure: as §1, §2, §3, §4

IFO2347 strain [3] = assay: Flow cytometry of CDCFDA-labeled cells; assay type: cell-based, Saccharomyces cerevisiae; settings: for mean fluorescence of labeled cells / peak fluorescence of labeled cells: 10 μM CDCFDA, 24° C., one hour
Procedure: Cells were incubated with 10 μM CFDA or 10 μM CDCFDA and cultivated under several hydrostatic pressures for one hour. After decompression, the labeled (or stained) cells were washed twice with distilled water and re-suspended in MB buffer. The cells were analyzed using the Bryte-HS Flow Cytometry System (available from Bio-Rad) under ordinary pressure.
The IFO2347 strain was cultured at 24° C. for one hour in the presence of 10 μM CDCFDA, under a hydrostatic pressure of 0.1, 30 or 60 MPa. The CDCFDA-labeled cells (about 100,000) were analyzed using the Bryte-HS Flow Cytometry System. FIG.2A depicts the histograms showing the intensity distribution of populations of IFO2347 cells labeled with CDCFDA observed after the cultivation.

IFO2347 strain [4] = assay: Effects of hydrostatic pressure on hydrolysis of CDCFDA; assay type: cell-based, Saccharomyces cerevisiae; settings: for fluorescence intensity reached (hydrolysis under pressure): 50 μM CDCFDA, FIG. 3A
From the text: Fluorescence emission was examined under several hydrostatic pressures in a hydrostatic chamber provided with transparent windows which were made by sapphire (size: 10×8 mm). Each sample in a transparent cuvette was placed in the chamber which was set up in an RF5300PC spectrofluorometer. Fluorescence was emitted at 535 nm with excitation at 485 nm. The fluorescence intensity of the labeled cells was strong enough to be detected through the sapphire windows, even though the emission was reduced compared to the analysis without such a hydrostatic chamber equipped with a sapphire window. Each hydrostatic pressure was applied using a hand pump (available from Teramecs, Co. Ltd., Japan).
A cuvette containing the IFO2347 strain was fitted to a container, followed by addition of 50 μM CDCFDA, application of a hydrostatic pressure at a point P (see FIG. 3A), and examination of the fluorescence intensity change with time in a hydrostatic chamber equipped with RF5300 Fluorescent Spectrometer. The results obtained are plotted on FIG. 3A The fluorescence intensity increased to 300 a.u. and 130 a.u. when hydrostatic pressures of 0.1 MPa (ordinary pressure) and 60 MPa were applied, respectively (FIG. 3A). On the other hand, the fluorescence intensity increased to 770 a.u. when a pressure of 30 MPa was applied.
Cells of the IFD2347 strain were pre-incubated at several hydrostatic pressures for one hour in YPD culture medium (pH 5.0), and subsequently the pre-incubated cells were placed into a cuvette, followed by addition of 50 μM of CDCFDA to the pressure-adapted cells at ordinary pressure and examination of any change in the fluorescence intensity (the hydrolysis activity) by the same method as used above. The results thus obtained are plotted on FIG. 3B. […] Almost identical results were obtained when using CFDA (data not shown).

O=CC[C@@H](O)[C@H](O)[C@H](O)CO [2-deoxyglucose]
IC50 (IFO2347 strain [1]): ~12 mM

Carboxydichlorofluorescein [CDCF]
fluorescence intensity relative to non-labeled cells (IFO10159 strain): about 2.5 fold
total fluorescence intensity of labeled cells (IFO10159 strain): 24.8 a. u. per 10^7 cells
hydrostatic pressure at which accumulation peaks (IFO2347 strain [2]): 30 MPa
mean fluorescence of labeled cells (IFO2347 strain [3]; 0.1 MPa (ordinary pressure)): 26 a.u.
peak fluorescence of labeled cells (IFO2347 strain [3]; 0.1 MPa (ordinary pressure)): 23 a.u.
increase of accumulation of CDCF (IFO2347 strain [3]; 30 MPa for one hour versus ordinary pressure): four to six folds
mean fluorescence of labeled cells (IFO2347 strain [3]; 30 MPa): 162 a.u.
peak fluorescence of labeled cells (IFO2347 strain [3]; 30 MPa): 92 a.u.
enhancement of staining (IFO2347 strain [3]; 60 MPa): not enhanced

Carboxydichlorofluorescein diacetate [CDCFDA]
fluorescence intensity reached (hydrolysis under pressure) (IFO2347 strain [4]; 0.1 MPa (ordinary pressure)): 300 a.u.
fluorescence intensity reached (hydrolysis under pressure) (IFO2347 strain [4]; 30 MPa): 770 a.u.
fluorescence intensity reached (hydrolysis under pressure) (IFO2347 strain [4]; 60 MPa): 130 a.u.
rate of hydrolysis by cells adapted to 30 MPa relative to cells adapted to 0.1 MPa or 60 MPa (IFO2347 strain [4]; pre-incubation one hour, 50 μM CDCFDA added at ordinary pressure, FIG. 3B): approximately three times greater

Carboxyfluorescein [CF]
fluorescence intensity relative to non-labeled cells (IFO10159 strain): 1.6 fold
total fluorescence intensity of labeled cells (IFO10159 strain): 15.5 a. u. per 10^7 cells
hydrostatic pressure at which accumulation peaks (IFO2347 strain [2]): 40 MPa
